Source: ChEMBL document CHEMBL1201862, “PubChem BioAssay data set” (2004)
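In this assay, cells in 96-well plates receive the compound at five concentrations for 48 hours. Endpoints are linearly interpolated between the surrounding concentrations. GI50: concentration for 50% inhibition of growth.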 Activity calls are given as the source filed them. Cut-off read from the data, not from the text of the source: active = GI50 up to about 1.1 µM and inactive = higher.

Legend:
Test in all cases: inhibition of tumour cell growth, NCI panel, 48 h
[1] = system: OVCAR-5
[2] = system: SK-MEL-2
[3] = system: PC-3
[4] = system: DU-145
[5] = system: HOP-62
[6] = system: U-251
[7] = system: TK-10
[8] = system: HL-60
[9] = system: ACHN
[10] = system: MDA-N
[11] = system: KM12
[12] = system: 786-0
[13] = system: SK-MEL-28
[14] = system: OVCAR-4
[15] = system: Malme-3M
[16] = system: UO-31
[17] = system: NCI/ADR-RES
[18] = system: SK-OV-3
[19] = system: SF-539
[20] = system: M14

Measured: GI50

COc1cc(/C=C2\C[C@H]3[C@@H]4CCC5=CC(=O)CC[C@]5(C)[C@H]4CC[C@]3(C)C2=O)cc(OC)c1OC
inactive: [1] 33.1 µM | [2] 7.19 µM | [3] 3.23 µM | [4] 19.5 µM | [5] 12.8 µM | [6] 11.7 µM | [7] 19.8 µM | [8] 3.39 µM | [9] 9.16 µM | [10] 4.43 µM | [11] 3.58 µM | [12] 23.1 µM | [13] 15.9 µM | [14] 6.12 µM | [15] 11.4 µM | [16] 2.72 µM | [17] 3.86 µM | [18] 29.4 µM | [19] 46.7 µM | [20] 3.74 µM

CC(C)[Si]1(C(C)C)OCC2OC(n3ccc(=O)[nH]c3=O)C([Se]c3ccccc3)C2O[Si](C(C)C)(C(C)C)O1 (stereo not given)
inactive: [1] 9.48 µM | [2] 6.79 µM | [3] 3.35 µM | [4] 12.2 µM | [5] 12.3 µM | [6] 2.07 µM | [7] 7.46 µM | [8] 5.89 µM | [9] 2.61 µM | [10] 3.4 µM | [11] 2.16 µM | [12] 3.83 µM | [13] 3.59 µM | [14] 2.88 µM | [15] 2.81 µM | [16] 8.77 µM | [17] 11.2 µM | [18] 16.5 µM | [19] 7.96 µM | [20] 8.24 µM

COc1ccccc1/C=N/Nc1nnc2c3ccccc3c3ncccc3c2n1
inactive: [1] 79.4 µM | [2] 24.2 µM | [3] > 100 µM | [4] > 100 µM | [5] 17.1 µM | [6] 37.3 µM | [7] 28.6 µM | [8] > 100 µM | [9] 57 µM | [10] > 100 µM | [11] > 100 µM | [12] 28.1 µM | [13] > 100 µM | [14] 17.8 µM | [15] 49.1 µM | [16] > 100 µM | [17] 38.1 µM | [18] 32.8 µM | [19] 19 µM | [20] 50.5 µM

CC(C)(C)OC(=O)N/N=C(/N)c1ccccc1
inactive: [1] > 100 µM | [2] > 100 µM | [3] > 100 µM | [4] > 100 µM | [5] > 100 µM | [6] > 100 µM | [7] > 100 µM | [8] 6.55 µM | [9] > 100 µM | [10] > 100 µM | [11] > 100 µM | [12] > 100 µM | [13] > 100 µM | [14] > 100 µM | [15] > 100 µM | [16] > 100 µM | [17] > 100 µM | [18] > 100 µM | [19] > 100 µM | [20] > 100 µM

Cc1ccc(-c2cn3c(nc4ccccc43)c(C)n2)cc1
inactive: [1] 51.6 µM | [2] > 43.4 µM | [3] 46.6 µM | [4] 46.5 µM | [5] 30.8 µM | [6] 32.4 µM | [7] 43.9 µM | [8] 26.5 µM | [9] 30.3 µM | [10] 54.1 µM | [11] > 100 µM | [12] 25.8 µM | [13] 58.2 µM | [14] 59 µM | [15] 37.6 µM | [16] 2.71 µM | [17] 40.1 µM | [18] 7.66 µM | [19] > 54.3 µM | [20] 39.5 µM

CNc1ccc(C)cc1S(=O)(=O)c1ccccc1[N+](=O)[O-]
inactive: [1] > 100 µM | [2] 62.4 µM | [3] 28.1 µM | [4] > 100 µM | [5] 58.9 µM | [6] 57.7 µM | [7] 99.3 µM | [8] > 10 µM | [9] 30.8 µM | [10] 26.2 µM | [11] 59.4 µM | [12] 64.6 µM | [13] 38.8 µM | [14] 25.2 µM | [15] 60.3 µM | [16] 52.5 µM | [17] 42.3 µM | [18] 91 µM | [19] > 100 µM | [20] 40.6 µM

CN(C)c1ccc(/C=C2\N=C(c3ccccc3)N(/N=C3\C(=O)Nc4ccccc43)C2=O)cc1
inactive: [1] > 100 µM | [2] 37.7 µM | [3] 56.5 µM | [4] 61.9 µM | [5] > 100 µM | [6] 76.6 µM | [7] 53.2 µM | [8] 35.2 µM | [9] 65.9 µM | [10] 32.7 µM | [11] 50.9 µM | [12] 52.4 µM | [13] > 100 µM | [14] 32.4 µM | [15] 45.9 µM | [16] 36 µM | [17] 83.8 µM | [18] > 100 µM | [19] > 100 µM | [20] 91.4 µM
